# Measurements as given in paper PMC9345997, “Determination of oligosaccharide product distributions of PL7 alginate lyases by their structural elements” (Communications Biology, 2022).
# Biological target: T1, PyAly (Pyropia yezoensis, UniProt D2KX85, H125A/Y223A)
# T1 construct: single-domain PL7 lyase; E. coli BL21(DE3), pET32a; tag cleaved; residues built 27-241
# Assay: X-ray crystal structure, […] A
# Assay type: binding
# Conditions: cocrystallized at 10:1 molar ratio; complete M5 at subsites -2 to +3
# T1 sequence (D2KX85 entry or part of it H125A/Y223A): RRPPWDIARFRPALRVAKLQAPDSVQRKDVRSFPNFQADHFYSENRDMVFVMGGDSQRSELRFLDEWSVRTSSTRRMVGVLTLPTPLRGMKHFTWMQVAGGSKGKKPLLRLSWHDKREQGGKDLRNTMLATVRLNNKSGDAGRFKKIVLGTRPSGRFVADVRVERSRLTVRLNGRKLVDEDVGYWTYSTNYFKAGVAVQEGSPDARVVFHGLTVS
smiles,measurement,value
O=C(O)[C@H]1O[C@@H](O[C@H]2[C@H](O)[C@H](O)[C@H](O[C@H]3[C@H](O)[C@H](O)[C@H](O[C@H]4[C@H](O)[C@H](O)[C@H](O[C@H]5[C@H](O)[C@H](O)C(O)O[C@@H]5C(=O)O)O[C@@H]4C(=O)O)O[C@@H]3C(=O)O)O[C@@H]2C(=O)O)[C@@H](O)[C@@H](O)[C@@H]1O (stereo partly shown) [M5],"X-ray crystal structure, 1.70 A",structure of the PyAly^H125A_Y223A-M5 complex presented the complete M5 substrate
